Reference: patent EP4603105A1, “PHARMACEUTICAL COMPOSITION CONTAINING CYCLIC COMPOUND HAVING SELECTIVE KRAS INHIBITORY EFFECT AGAINST HRAS AND NRAS” (CHUGAI SEIYAKU KABUSHIKI KAISHA, priority 2022, dated 2024)

Columns and labels:
[1] = target: GDP-bound NRAS wild-type protein (Homo sapiens, UniProt P01111); assay: Binding to NRAS by surface plasmon resonance (SPR), KD and KD ratio to KRAS
Outline: (§1)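 Each cycle, GDP-bound biotin-Avi RAS was captured (~100–300 RU), compound concentrations were injected low to high for 75 s each at 100 µL/min, then the chip was regenerated. Buffer: HBS pH 7.4, 10 mM MgCl2, 10 µM GDP, 1 mM DTT, 4% DMSO; 30°C. KD from a 1:1 binding model.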

HRAS wild-type protein = HRAS wild-type protein (Homo sapiens, UniProt P01112); assay: Binding to HRAS by surface plasmon resonance (SPR), KD and KD ratio to KRAS
Outline: as §1

[2] = test system: human lung cancer strain NCI-H441; assay type: cell-based
Outline: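 Signal came from […] measured per well once the reagent was added. Beforehand, cells were cultured at 37°C and 5% carbon dioxide on a compound series serially diluted in dimethyl sulfoxide.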

[3] = ratio of KD value for GDP-bound NRAS wild-type protein to KD value for KRAS (SPR)
[4] = ratio of KD value for HRAS wild-type protein to KD value for KRAS (SPR)
[5] = ratio of the KD value with respect to GDP-bound NRAS wild-type protein to the KD value with respect to KRAS
[6] = ratio of the KD value with respect to HRAS wild-type protein to the KD value with respect to KRAS

HRAS wild-type protein, sequence (P01112 whole entry): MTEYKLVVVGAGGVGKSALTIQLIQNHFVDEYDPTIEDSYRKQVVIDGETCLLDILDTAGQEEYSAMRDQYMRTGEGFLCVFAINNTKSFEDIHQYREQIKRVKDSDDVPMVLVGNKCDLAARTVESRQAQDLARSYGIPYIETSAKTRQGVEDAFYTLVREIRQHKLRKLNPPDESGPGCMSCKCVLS
GDP-bound NRAS wild-type protein, sequence (P01111 whole entry): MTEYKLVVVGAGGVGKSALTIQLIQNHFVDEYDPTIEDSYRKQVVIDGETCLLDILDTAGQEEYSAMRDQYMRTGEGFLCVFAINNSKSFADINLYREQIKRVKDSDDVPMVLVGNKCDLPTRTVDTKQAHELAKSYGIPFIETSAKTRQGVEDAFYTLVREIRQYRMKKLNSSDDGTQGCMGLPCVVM

Compound | NRAS /KRAS [1, 3] | HRAS /KRAS (HRAS wild-type protein; [4]) | IC50 [2] [nM] | NRAS /KRAS [1, 5] | HRAS /KRAS (HRAS wild-type protein; [6])
CCO[C@@H]1C[C@H]2C(=O)NC3(CC(C)(C)C3)C(=O)N(C)[C@@H](C3CCCC3)C(=O)N(C)[C@H](C(=O)N(C)C)CC(=O)N(C)[C@@H](CC(C)C)C(=O)N[C@@H]([C@@H](C)CC)C(=O)N(C)CC(=O)N(C)[C@H]3C/C=C\CCN(C3=O)[C@@H](Cc3ccc(C(F)(F)F)cc3)C(=O)N(C)CC(=O)N[C@@H](CCc3cc(F)c(C(F)(F)F)c(F)c3)C(=O)N2C1 [PP1650] | A (a compound having 10 or more and less than 20 is denoted as A) | A (a compound having 10 or more and less than 20 is denoted as A) | 1.2 |  | 
CC[C@H](C)[C@@H]1NC(=O)[C@H](CC(C)C)N(C)C(=O)C[C@@H](C(=O)N2CCOCC2)N(C)C(=O)[C@H](C2CCCC2)N(C)C(=O)C2(CCCC2)NC(=O)[C@@H]2CCCN2C(=O)[C@H](CCc2ccc(C(F)(F)F)c(Cl)c2)NC(=O)CN(C)C(=O)[C@H](Cc2ccc(Cl)cc2)N2CC=CC[C@@H](C2=O)N(C)C(=O)CN(C)C1=O [PP0533] |  |  | 8.9 | C (A compound having a KD ratio of 0.1 or more and less than 3 is denoted as C) | C (A compound having a KD ratio of 0.1 or more and less than 3 is denoted as C)
CC[C@H](C)[C@@H]1NC(=O)[C@H](CC2CC2)N(C)C(=O)C[C@@H](C(=O)N(C)C)N(C)C(=O)[C@H](C2CCCC2)N(C)C(=O)C2(CCC2)NC(=O)[C@@H]2C[C@H](C)CN2C(=O)[C@H](CCc2cc(F)c(C(F)(F)F)c(F)c2)NC(=O)CN(C)C(=O)[C@H](Cc2ccc(C(F)(F)F)cc2)N2CC/C=C\C[C@@H](C2=O)N(C)C(=O)CN(C)C1=O [PP1499] | A (a compound having 10 or more and less than 20 is denoted as A) | B (a compound having 3 or more and less than 10 is denoted as B) | 5.5 |  | 
CC[C@H](C)[C@@H]1NC(=O)[C@H](CC(C)C)N(C)C(=O)C[C@@H](C(=O)N2CCOCC2)N(C)C(=O)[C@H](C2CCCC2)N(C)C(=O)C2(CCCC2)NC(=O)[C@@H]2CCCN2C(=O)[C@H](CCc2cc(F)c(C(F)(F)F)c(F)c2)NC(=O)CN(C)C(=O)[C@H](Cc2ccc(C(F)(F)F)cc2)N2CCCC[C@@H](C2=O)N(C)C(=O)CN(C)C1=O [PP0552] |  |  | 2.8 | B (a compound having 3 or more and less than 10 is denoted as B) | B (a compound having 3 or more and less than 10 is denoted as B)
CCC[C@H]1C(=O)N[C@@H]([C@@H](C)CC)C(=O)N(C)CC(=O)N(C)[C@H]2C/C=C\CCN(C2=O)[C@@H](Cc2ccc(C)cc2)C(=O)N(C)CC(=O)N[C@@H](CCc2ccc(C(F)(F)F)c(OC)c2)C(=O)N2C[C@H](OCC)C[C@H]2C(=O)NC2(CC(C)(C)C2)C(=O)N(C)[C@@H](C2CCCC2)C(=O)N(C)[C@H](C(=O)N(C)C)CC(=O)N1C [PP1892] | A (a compound having 10 or more and less than 20 is denoted as A) | B (a compound having 3 or more and less than 10 is denoted as B) | 4.8 |  | 
CCO[C@@H]1C[C@H]2C(=O)NC3(CC(F)(F)C3)C(=O)N(C)[C@@H](C(CC)CC)C(=O)N(C)C(C(C)C)CC(=O)N(C)[C@@H](CC)C(=O)N[C@@H]([C@@H](C)CC)C(=O)N(C)CC(=O)N(C)[C@H]3C/C=C\CCN(C3=O)[C@@H](Cc3ccc(C(F)(F)F)cc3)C(=O)N(C)CC(=O)N[C@@H](CCc3cc(F)c(C(F)(F)F)c(F)c3)C(=O)N2C1 (stereo partly drawn) [PP1591] | A (a compound having 10 or more and less than 20 is denoted as A) | A (a compound having 10 or more and less than 20 is denoted as A) | 85.4 |  | 
CCO[C@@H]1C[C@H]2C(=O)NC3(CCC3)C(=O)N(C)[C@@H](C3CCCC3)C(=O)N(C)[C@H](C(=O)N3CCOCC3)CC(=O)N(C)[C@@H](CCOC)C(=O)N[C@@H]([C@@H](C)CC)C(=O)N(C)CC(=O)N(C)[C@H]3CCCCCN(C3=O)[C@@H](Cc3ccc(C(F)(F)F)cc3)C(=O)N(C)CC(=O)N[C@@H](CCc3cc(F)c(C(F)(F)F)c(F)c3)C(=O)N2C1 [PP0690] |  |  | 60.7 | B (a compound having 3 or more and less than 10 is denoted as B) | B (a compound having 3 or more and less than 10 is denoted as B)
